The test system of assay [1] is cultured human mast cells (CHMC). Kind of assay: CHMC low cell density IgE activation: tryptase assay. The class given is cell-based. The settings on record: anti-IgE. In short, it runs like this:
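Read-out: tryptase released into supernatant, measured by substrate turnover over 30 min at RT. Low-density CHMC (1000-1500 cells/well, per donor degranulation activity) in MT buffer, 1 hr at 37° C, then anti-IgE challenge 30 min at 37° C.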

Assay [2] shares this test system. Nature of the assay: CHMC low cell density ionomycin activation: tryptase assay. The format is cell-based.

Structures can show the parent of a compound that is named as a salt.

`CNc1ncc(F)c(Nc2ccc3c(c2)OCCO3)n1` [R950189]: the IC50 (usually the midpoint of a concentration-inhibition curve) in assay [1] (Homo sapiens, Mast cell) is 10000 nM; in assay [2] (Homo sapiens, Mast cell), more than 10000 nM.

Regarding `NC(=O)CNc1cccc(Nc2ncc(F)c(Nc3ccc4c(c3)OCCO4)n2)c1` [R950192, N2-[3-(N-Amino)carbonylmethyleneaminophenyl]-N4-(3,4-ethylenedioxyphenyl)-5-fluoro-2,4-pyrimidinediamine], the IC50 in assay [1] was 244 nM; in assay [2], more than 10000 nM.

For `O=C(CNc1cccc(Nc2ncc(F)c(Nc3ccc4c(c3)OCCO4)n2)c1)N1CCOCC1` [R950193, N4-(3,4-Ethylenedioxyphenyl)-5-fluoro-N2-[3-(N-morpholino)carbonylmethyleneaminophenyl]-2,4-pyrimidinediamine], the IC50 in assay [1] is 610 nM; in assay [2], more than 10000 nM.

On to `CN1CCN(C(=O)CNc2cccc(Nc3ncc(F)c(Nc4ccc5c(c4)OCCO5)n3)c2)CC1` [R950194, N4-(3,4-Ethylenedioxyphenyl)-5-fluoro-N2-[3-(N—(N-methyl)-piperazino)carbonylmethyleneaminophenyl]-2,4-pyrimidinediamine], for which the IC50 in assay [1] was 2040 nM; in assay [2], more than 10000 nM.

As for `CNCCNC(=O)CNc1cccc(Nc2ncc(F)c(Nc3ccc4c(c3)OCCO4)n2)c1` [R950196, N4-(3,4-Ethylenedioxyphenyl)-5-fluoro-N2-[3-(N-methylamino)ethyleneaminocarbonylmethyleneaminophenyl]-2,4-pyrimidinediamine], the IC50 is 2200 nM in assay [1] and more than 10000 nM in assay [2].

Regarding `O=C(CNc1cccc(Nc2ncc(F)c(Nc3ccc4c(c3)OCCO4)n2)c1)N1CCNCC1` [R950197, N4-(3,4-Ethylenedioxyphenyl)-5-fluoro-N2-[3-(N-piperazino)carbonylmethyleneaminophenyl]-5-fluoro-2,4-pyrimidinediamine], the IC50 in assay [1] was 531 nM; in assay [2], more than 10000 nM.

Regarding `O=C(CNc1cccc(Nc2ncc(F)c(Nc3ccc4c(c3)OCCO4)n2)c1)NCCNCc1ccccc1` [R950198, N2-[3-(N-Benzylamino)ethyleneaminocarbonylmethyleneaminophenyl]-N4-(3,4-ethylenedioxyphenyl)-5-fluoro-2,4-pyrimidinediamine], the IC50 is 406 nM in assay [1] and more than 10000 nM in assay [2].

Take `O=C(CNc1cccc(Nc2ncc(F)c(Nc3ccc4c(c3)OCCO4)n2)c1)N(CCO)CCO` [R950199, N2-[3-(N,N′-Bis(2-N-hydroxyethyl)amino)carbonylmethyleneaminophenyl]-N4-(3,4-ethylenedioxyphenyl)-5-fluoro-2,4-pyrimidinediamine]: the IC50 in assay [1] is 408 nM; in assay [2] it was more than 10000 nM.

For `O=C(CNc1cccc(Nc2ncc(F)c(Nc3ccc4c(c3)OCCO4)n2)c1)NCCN1CCOCC1` [R950200, N4-(3,4-Ethylenedioxyphenyl)-5-fluoro-N2-[3-(N-2-morpholinoethyleneamino)carbonylmethyleneaminophenyl]-2,4-pyrimidinediamine], the results for the IC50 in assay [1] and in assay [2] were 245 nM and more than 10000 nM, respectively.

For `CSc1nc2ccc(Nc3ncc(F)c(Nc4ccc5c(c4)OCCO5)n3)cc2s1` [R950201, N4-(3,4-Ethylenedioxyphenyl)-5-fluoro-N2-[2-(methylthio)-1,3-benzothiaz-6-yl]-2,4-pyrimidinediamine], the IC50 in assay [1] was 261 nM; in assay [2], more than 10000 nM.

With `CSc1nc2ccc(Nc3ncc(F)c(Nc4ccc5nc(SC)sc5c4)n3)cc2s1` [R950202, N2,N4-Bis[2-(methylthio)-1,3-benzothiaz-6-yl]-5-fluoro-2,4-pyrimidinediamine], the IC50 in assay [1] was 3220 nM; in assay [2] it was more than 10000 nM.

Turning to `OCCNc1cccc(Nc2ncc(F)c(Nc3ccc4c(c3)OCCO4)n2)c1` [R950208, N4-(3,4-Ethylenedioxyphenyl)-5-fluoro-N2-[3-(hydroxyethyleneamino)phenyl]-2,4-pyrimidinediamine], the IC50 in assay [1] is 267 nM; in assay [2], more than 10000 nM.

For the compound `CCOC(=O)CNc1cccc(Nc2ncc(F)c(Nc3cccc(O)c3)n2)c1` [R950215, N2-(Ethoxycarbonylmethyleneaminophenyl)-5-fluoro-N4-(3-hydroxyphenyl)-2,4-pyrimidinediamine], the values for the IC50 in assay [1] and in assay [2] were 409 nM and more than 10000 nM, respectively.

With `CCOC(=O)CNc1cccc(Nc2ncc(F)c(Nc3cccc(O)c3)n2)c1` [R950216], the IC50 in assay [1] (Homo sapiens, Mast cell) was 327 nM; in assay [2] (Homo sapiens, Mast cell), more than 10000 nM.

Turning to `O=C(CNc1cccc(Nc2ncc(F)c(Nc3cccc(O)c3)n2)c1)N1CCOCC1` [R950221, 5-Fluoro-N4-(3-hydroxyphenyl)-N2-[3-(N-morpholino)carbonylmethyleneaminophenyl]-2,4-pyrimidinediamine], the figures for the IC50 in assay [1] and in assay [2] were 636 nM and more than 10000 nM, respectively.

As for `O=C(CNc1cccc(Nc2ncc(F)c(Nc3cccc(O)c3)n2)c1)N1CCNCC1` [R950222, 5-Fluoro-N4-(3-hydroxyphenyl)-N2-[3-(N-piperazino)carbonylmethyleneaminophenyl]-2,4-pyrimidinediamine], the IC50 is 865 nM in assay [1] and more than 10000 nM in assay [2].

In the case of `CN1CCN(C(=O)CNc2cccc(Nc3ncc(F)c(Nc4cccc(O)c4)n3)c2)CC1` [R950223, 5-Fluoro-N4-(3-hydroxyphenyl)-N2-[3-[N—(N-methyl)piperazino]carbonylmethyleneaminophenyl]-2,4-pyrimidinediamine], the IC50 in assay [1] is 763 nM; in assay [2], more than 10000 nM.

Take `O=C(CNc1cccc(Nc2ncc(F)c(Nc3cccc(O)c3)n2)c1)NCCN1CCOCC1` [R950226]: the values for the IC50 in assay [1] and in assay [2] were 1370 nM and more than 10000 nM, respectively.

Consider `CCOC(=O)CNc1cccc(Nc2ncc(F)c(Nc3cccc(NCCO)c3)n2)c1` [R950229, N2-(Ethoxycarbonylmethyleneaminophenyl)-5-fluoro-N4-[3-(2-hydroxyethylamino)phenyl]-2,4-pyrimidinediamine], for which the IC50 in assay [1] is 980 nM; in assay [2] it was more than 10000 nM.

Take `O=C(CNc1cccc(Nc2ncc(F)c(Nc3cccc(NCCO)c3)n2)c1)NCCO` [R950231, 5-Fluoro-N4-[3-(2-hydroxyethylamino)phenyl]-N2-[3-[N-(2-hydroxyethylamino)]carbonylmethyleneaminophenyl]-2,4-pyrimidinediamine]: the IC50 is 1970 nM in assay [1] and more than 10000 nM in assay [2].

Consider `CNCCNC(=O)CNc1cccc(Nc2ncc(F)c(Nc3cccc(NCCO)c3)n2)c1` [R950234, 5-Fluoro-N4-[3-(2-hydroxyethylamino)phenyl]-N2-[3-[N-(2-methylamino)ethylamino]carbonylmethyleneaminophenyl]-2,4-pyrimidinediamine], for which the values for the IC50 in assay [1] and in assay [2] were 10000 nM and more than 10000 nM, respectively.

In the case of `O=C(CNc1cccc(Nc2ncc(F)c(Nc3cccc(NCCO)c3)n2)c1)NCCNCc1ccccc1` [R950235, N2-[3-[N-(2-N-Benzylamino)ethylamino]carbonylmethyleneaminophenyl]-5-fluoro-N4-[3-(2-hydroxyethylamino)phenyl]-2,4-pyrimidinediamine], the IC50 in assay [1] is 4090 nM; in assay [2], more than 10000 nM.

Take `O=C(CNc1cccc(Nc2ncc(F)c(Nc3cccc(NCCO)c3)n2)c1)N1CCOCC1` [R950236, 5-Fluoro-N4-[3-(2-hydroxyethylamino)phenyl]-N2-[3-(N-morpholino)carbonylmethyleneaminophenyl]-2,4-pyrimidinediamine]: the IC50 in assay [1] was 955 nM; in assay [2], more than 10000 nM.

Regarding `CN(C)CCCNC(=O)CNc1cccc(Nc2ncc(F)c(Nc3cccc(NCCO)c3)n2)c1` [R950237, N2-[3-(3-N,N-Dimethylaminopropyl)aminocarbonylmethyleneaminophenyl]-5-fluoro-N4-[3-(2-hydroxyethylamino)phenyl]-2,4-pyrimidinediamine], the IC50 in assay [1] and in assay [2] was more than 10000 nM throughout.

As for `O=C(CNc1cccc(Nc2ncc(F)c(Nc3cccc(NCCO)c3)n2)c1)NCCN1CCOCC1` [R950239, 5-Fluoro-N4-[3-(2-hydroxyethylamino)phenyl]-N2-[3-(N-morpholinoethyleneamino)carbonylmethyleneaminophenyl]-2,4-pyrimidinediamine], the results for the IC50 in assay [1] and in assay [2] were 2060 nM and more than 10000 nM, respectively.

Take `CN1CCN(C(=O)CNc2cccc(Nc3ncc(F)c(Nc4cccc(NCCO)c4)n3)c2)CC1` [R950240, N4-[3-(2-Hydroxyethyleamino)phenyl]-N2-[3-(N—(N-methyl)-piperazino)carbonylmethyleneaminophenyl]-5-fluoro-2,4-pyrimidinediamine]: the IC50 in assay [1] was 1770 nM; in assay [2], more than 10000 nM.

`O=C(CNc1cccc(Nc2ncc(F)c(Nc3cccc(NCCO)c3)n2)c1)N1CCNCC1` [R950241, N4-[3-(2-Hydroxyethyleamino)phenyl]-N2-[3-(N-piperazino)-carbonylmethyleneaminophenyl]-5-fluoro-2,4-pyrimidinediamine]: the IC50 is 3280 nM in assay [1] and more than 10000 nM in assay [2].

`O=[N+]([O-])c1cccc(Nc2nc(Nc3ccc4c(c3)NCCO4)ncc2F)c1` [R950253]: the figures for the IC50 in assay [1] and in assay [2] were 697 nM and more than 10000 nM, respectively.

In the case of `CNC(=O)COc1cccc(Nc2ncc(F)c(Nc3cccc(N)c3)n2)c1` [R950262, N4-(3-Aminophenyl)-5-fluoro-N2-[3-(N-methylamino)carbonylmethyleneoxyphenyl]-2,4-pyrimidinediamine HCl salt], the IC50 in assay [1] (HCl salt) was 285 nM; in assay [2] (HCl salt), more than 10000 nM.

For the compound `CNC(=O)COc1cccc(Nc2ncc(F)c(Nc3cccc(N)c3)n2)c1` [R950263, N4-(3-Aminophenyl)-5-fluoro-N2-[3-(N-methylamino)carbonylmethyleneoxyphenyl]-2,4-pyrimidinediamine], the IC50 worked out at 284 nM in assay [1] and 3300 nM in assay [2].

Turning to `CNC(=O)COc1cccc(Nc2ncc(F)c(Nc3cccc(N(C)C)c3)n2)c1` [R950264, N4-(3-Bis-N-methylaminophenyl)-5-fluoro-N2-[3-(N-methylamino)carbonylmethyleneoxyphenyl]-2,4-pyrimidinediamine], the IC50 is 198 nM in assay [1] and more than 10000 nM in assay [2].

The values are drawn from US9499493B2, “2,4-pyrimidinediamine compounds and their uses” (Rigel Pharmaceuticals, Inc., priority 2002, dated 2016).
